# Measurements as given in patent publication US9951389B2, “Diagnostic markers for treating cell proliferative disorders with telomerase inhibitors” (Geron Corporation, priority 2012, dated 2018).
# Where two headings read alike, the source gives them in different places. [nps] = N3'→P5' thiophosphoramidate linkage
# Legend:
# [1] = tested on: advanced stage non-small cell lung cancer; test: Imetelstat NSC Lung Cancer Phase II (CP14B-012) Study, progression-free survival analysis by tumor telomere length subgroup; type: in vivo, human; conditions: for responsiveness (progression-free survival) of patients with short telomeres vs medium-long telomeres: telomere length subgroups by qPCR
# Description: The purpose of the NSC Phase II (CP14B-012) Study was to evaluate the efficacy and safety of imetelstat (GRN163L) as maintenance therapy for patients with advanced stage non-small cell lung cancer who have not progressed after 4 cycles of platinum based therapy. Participants were randomized in a 2:1 ratio to imetelstat plus standard of care versus standard of care alone. Participants who received bevacizumab with their induction chemotherapy continued to receive bevacizumab in this study.
# The primary outcome measures were progression-free survival, defined as the time from randomization to documented disease progression or death, whichever occurred earlier, as determined by the investigator's assessment according to RECIST (Response Evaluation Criteria in Solid Tumors). The secondary outcome measures were objective response, time to all-cause mortality, and safety and tolerability (assessed by the incidence, nature, and severity of adverse events, laboratory abnormalities, and vital signs.
# The patients were divided into two arms. In the experimental arm, patients received Imetelstat plus the standard of care (Bevacizumab or observation). Specifically, 9.4 mg/kg of Imetelstat (GRN163L) was given to patients over a 2 hour IV infusion on Day 1 and Day 8 of each 21 day cycle until disease progression. If administered, Bevacizumab was given on Day 1 of each 21-day cycle, with dosage and duration according to the FDA-approved Bevacizumab package insert.
# In the control arm, patients received Bevacizumab or observation. If administered, Bevacizumab was given on Day 1 of each 21-day cycle, with dosage and duration according to the FDA-approved Bevacizumab package insert.
# Samples were obtained from 61 of the 116 patients enrolled in the NSC Phase II (CP14B-012) Study described above. […] Each assay produced data for between 7 and 14545 foci from six regions (‘fields’) on a slide. The area and fluorescent intensity were recorded for each of the foci.
# The IN Cell developer Toolbox 1.9 (GE Corp.) was utilized to quantitate the average telomere length from cells obtained from biological samples and subjected to telo-FISH. This software was used to draw lines around cell nuclei based on the location of the DAPI stain, and around cell telomeres based on the location of the telomere-specific fluorescence. Once each nucleus and telomere was encircled, the software calculated the intensity and the area of each individual telomere in the cells and determined the average telomere length for the cells derived from the biological sample according to Equation 1: 1.376×log2(intensity)−6.215×√(area) [Equation 1]. Results
# This Example followed all of the procedures of Example 2 with the following changes to the qPCR protocol.
# [2] = tested on: epidermoid carcinoma, breast epithelium, renal carcinoma, renal adenocarcinoma, pancreatic, brain, colon, prostate, leukemia, lymphoma, myeloma, epidermal …; conditions: administered alone, in vitro; cited from earlier work
# [3] = tested on: animal tumor models, including ovarian and lung, both small cell and non-small cell; conditions: cited from earlier work
Substance,progression-free survival hazard ratio (95% CI) [1],"progression-free survival hazard ratio (95% CI) ([1]; Telo-FISH quartile split, small intensity/area (15/59, 25.4%), Example 3, Imetelstat vs control)","progression-free survival median (95% CI) ([1]; Telo-FISH quartile split, small intensity/area (15/59, 25.4%, shortest telomeres), Example 3, Imetelstat arm)","progression-free survival median (95% CI) ([1]; medium-long telomere subgroup (34 of 52 samples, 65%), second qPCR protocol of Example 4, Imetelstat arm)","progression-free survival median (95% CI) ([1]; medium-long telomere subgroup (38 of 57 samples, 67%), qPCR of Example 2, Imetelstat arm)","progression-free survival hazard ratio (95% CI) ([1]; medium-long telomere subgroup (65%), second qPCR protocol of Example 4, Imetelstat vs control)","progression-free survival events/N ([1]; medium-long telomere subgroup (67%), qPCR of Example 2, Imetelstat arm)","progression-free survival median (95% CI) ([1]; short telomere subgroup (18 of 52 samples, 35%), second qPCR protocol of Example 4, Imetelstat arm)","progression-free survival median (95% CI) ([1]; short telomere subgroup (19 of 57 samples, 33%), qPCR of Example 2, Imetelstat 9.4 mg/kg IV Day 1 and 8 of 21 day cycle plus standard of care)","progression-free survival events/N ([1]; short telomere subgroup (33%), qPCR of Example 2, Imetelstat arm)","progression-free survival hazard ratio (95% CI) ([1]; short telomere subgroup (33%), qPCR of Example 2, Imetelstat vs control arm)","progression-free survival hazard ratio (95% CI) ([1]; short telomere subgroup (35%), second qPCR protocol of Example 4, Imetelstat vs control)",responsiveness (progression-free survival) of patients with short telomeres vs medium-long telomeres ([1]; Example 2),responsiveness (progression-free survival) of patients with short telomeres vs medium-long telomeres ([1]; Example 4),inhibitory activity in cell culture [2],therapeutic efficacy in animal tumor models [3]
Imetelstat,"0.83 (0.36, 1.89)","0.26 (0.06, 1.1)","4.7 (1.41, NA)","3.03 (1.58, 4.47)","2.8 (1.51, 4.18)","0.65 (0.27, 1.56)",21/26,"1.91 (1.22, NA)","4.05 (1.25, NA)",8/11,"0.32 (0.1, 1.02)","0.55 (0.17, 1.84)",significantly more responsive compared to controls,significantly more responsive compared to controls,,
"GRN163: oligonucleotide having sequence TAGGGTTAGACAA (SEQ ID NO:3) and N3′→P5′ thiophosphoramidate (NPS) linkages (all [nps], sugars by position and methylation of C not given here)",,,,,,,,,,,,,,,has shown inhibitory activity,therapeutically effective
